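These data come from cells grown in 96-well plates and exposed to compound for 48 hours at five concentrations. TGI is the concentration that stops growth completely.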
Tests used:
Test in all cases: growth of human tumour cells (NCI), 48 h
OVCAR-4 ovarian = test system: OVCAR-4 ovarian
SF-268 CNS = test system: SF-268 CNS
DMS 273 small cell lung = test system: DMS 273 small cell lung
NCI-H522 lung = test system: NCI-H522 lung
CAKI-1 renal = test system: CAKI-1 renal
MALME-3M melanoma = test system: MALME-3M melanoma
M14 melanoma = test system: M14 melanoma
DLD-1 colon = test system: DLD-1 colon
NCI-H23 lung = test system: NCI-H23 lung
RPMI-8226 leukemia = test system: RPMI-8226 leukemia
HOP-62 NSCLC = test system: HOP-62 NSCLC
DMS 114 small cell lung = test system: DMS 114 small cell lung
LXFL 529 NSCLC = test system: LXFL 529 NSCLC
UACC-62 melanoma = test system: UACC-62 melanoma
COLO 205 colon = test system: COLO 205 colon
SN12C renal = test system: SN12C renal
HCC-2998 colon = test system: HCC-2998 colon
A498 renal = test system: A498 renal
HL-60(TB) leukemia = test system: HL-60(TB) leukemia
ACHN renal = test system: ACHN renal
SK-MEL-28 melanoma = test system: SK-MEL-28 melanoma
SF-539 CNS = test system: SF-539 CNS
HOP-92 NSCLC = test system: HOP-92 NSCLC
CCRF-CEM leukemia = test system: CCRF-CEM leukemia
K-562 leukemia = test system: K-562 leukemia
SR leukemia = test system: SR leukemia
NCI-H226 lung = test system: NCI-H226 lung
SNB-75 CNS = test system: SNB-75 CNS
HCT-116 colon = test system: HCT-116 colon
SK-OV-3 ovarian = test system: SK-OV-3 ovarian
786-0 renal = test system: 786-0 renal
UO-31 renal = test system: UO-31 renal
IGROV1 ovarian = test system: IGROV1 ovarian
MOLT-4 leukemia = test system: MOLT-4 leukemia
HCT-15 colon = test system: HCT-15 colon
SK-MEL-2 melanoma = test system: SK-MEL-2 melanoma
RXF 393 renal = test system: RXF 393 renal
SNB-78 CNS = test system: SNB-78 CNS
OVCAR-5 ovarian = test system: OVCAR-5 ovarian
SW-620 colon = test system: SW-620 colon
U251 CNS = test system: U251 CNS
LOX IMVI melanoma = test system: LOX IMVI melanoma
OVCAR-3 ovarian = test system: OVCAR-3 ovarian
UACC-257 melanoma = test system: UACC-257 melanoma
SNB-19 CNS = test system: SNB-19 CNS
SK-MEL-5 melanoma = test system: SK-MEL-5 melanoma
EKVX NSCLC = test system: EKVX NSCLC
SF-295 CNS = test system: SF-295 CNS
KM12 colon = test system: KM12 colon
M19-MEL melanoma = test system: M19-MEL melanoma
A549 NSCLC = test system: A549 NSCLC
TK-10 renal = test system: TK-10 renal
OVCAR-8 ovarian = test system: OVCAR-8 ovarian
NCI-H460 lung = test system: NCI-H460 lung

COc1cc([C@H]2Oc3cc(O)c4c(=O)cc(-c5ccccc5)oc4c3O[C@@H]2CO)ccc1O
TGI (OVCAR-4 ovarian): 89.4 µM | TGI (SF-268 CNS): > 100 µM | TGI (DMS 273 small cell lung): > 100 µM | TGI (NCI-H522 lung): 72 µM | TGI (CAKI-1 renal): 79.1 µM | TGI (MALME-3M melanoma): 46.3 µM | TGI (M14 melanoma): > 100 µM | TGI (DLD-1 colon): > 100 µM | TGI (NCI-H23 lung): 69.2 µM | TGI (RPMI-8226 leukemia): > 100 µM | TGI (HOP-62 NSCLC): > 100 µM | TGI (DMS 114 small cell lung): > 100 µM | TGI (LXFL 529 NSCLC): 77 µM | TGI (UACC-62 melanoma): > 100 µM | TGI (COLO 205 colon): > 100 µM | TGI (SN12C renal): > 100 µM | TGI (HCC-2998 colon): > 100 µM | TGI (A498 renal): 73.4 µM | TGI (HL-60(TB) leukemia): > 100 µM | TGI (ACHN renal): 63.8 µM | TGI (SK-MEL-28 melanoma): > 100 µM | TGI (SF-539 CNS): 56.6 µM | TGI (HOP-92 NSCLC): 58.1 µM | TGI (CCRF-CEM leukemia): > 100 µM | TGI (K-562 leukemia): > 100 µM | TGI (SR leukemia): > 100 µM | TGI (NCI-H226 lung): 80.1 µM | TGI (SNB-75 CNS): 39 µM | TGI (HCT-116 colon): > 100 µM | TGI (SK-OV-3 ovarian): 70.3 µM | TGI (786-0 renal): 61.2 µM | TGI (UO-31 renal): 58.6 µM | TGI (IGROV1 ovarian): > 100 µM | TGI (MOLT-4 leukemia): > 100 µM | TGI (HCT-15 colon): > 100 µM | TGI (SK-MEL-2 melanoma): > 100 µM

CCOc1ccccc1C=C1c2ccccc2C(=O)c2ccccc21
TGI (RXF 393 renal): 5.96 µM | TGI (OVCAR-4 ovarian): > 100 µM | TGI (SF-268 CNS): > 100 µM | TGI (DMS 273 small cell lung): 15.7 µM | TGI (NCI-H522 lung): 6.57 µM | TGI (SNB-78 CNS): > 100 µM | TGI (CAKI-1 renal): 6.58 µM | TGI (MALME-3M melanoma): > 100 µM | TGI (M14 melanoma): 64.5 µM | TGI (OVCAR-5 ovarian): > 100 µM | TGI (DLD-1 colon): > 100 µM | TGI (NCI-H23 lung): > 100 µM | TGI (RPMI-8226 leukemia): 23.2 µM | TGI (HOP-62 NSCLC): 36.3 µM | TGI (DMS 114 small cell lung): 15.9 µM | TGI (LXFL 529 NSCLC): > 100 µM | TGI (UACC-62 melanoma): > 100 µM | TGI (SW-620 colon): 41.4 µM | TGI (COLO 205 colon): 17.4 µM | TGI (SN12C renal): > 100 µM | TGI (U251 CNS): > 100 µM | TGI (HCC-2998 colon): 21.9 µM | TGI (LOX IMVI melanoma): > 100 µM | TGI (A498 renal): > 100 µM | TGI (OVCAR-3 ovarian): 10.5 µM | TGI (UACC-257 melanoma): 47 µM | TGI (HL-60(TB) leukemia): 8.46 µM | TGI (ACHN renal): > 100 µM | TGI (SK-MEL-28 melanoma): > 100 µM | TGI (SF-539 CNS): 5.22 µM | TGI (SNB-19 CNS): > 100 µM | TGI (SK-MEL-5 melanoma): 20.8 µM | TGI (EKVX NSCLC): 61.4 µM | TGI (HOP-92 NSCLC): 72.9 µM | TGI (CCRF-CEM leukemia): 35.5 µM | TGI (K-562 leukemia): > 100 µM | TGI (SF-295 CNS): > 100 µM | TGI (KM12 colon): > 100 µM | TGI (M19-MEL melanoma): > 100 µM | TGI (HCT-116 colon): 29.5 µM | TGI (A549 NSCLC): > 100 µM | TGI (TK-10 renal): 45.6 µM | TGI (SK-OV-3 ovarian): 8.67 µM | TGI (786-0 renal): 18 µM | TGI (UO-31 renal): 13.6 µM | TGI (OVCAR-8 ovarian): 43 µM | TGI (IGROV1 ovarian): > 100 µM | TGI (NCI-H460 lung): 31.9 µM | TGI (MOLT-4 leukemia): 29.4 µM | TGI (HCT-15 colon): > 100 µM | TGI (SK-MEL-2 melanoma): 11.9 µM

From PubChem BioAssay (NCI)
